Consider 5 molecules from US20230064490A1, “FLUORESCENT PROTEIN BIOSENSOR FOR DETECTION OF KINASE ACTIVITY” (Lucidicor Inc., priority 2018, published 2023).

Molecules are shown by their SMILES.

The experiment relates to PKA. Put plainly: PKA-PhosFluor fluorescence in transfected HEK-293 cells treated with drug. The class given is cell-based, human. The settings on record: HEK-293 cells transfected with PKA-PhosFluor; excitation 488 nm, emission 530 nm; 6 hr after addition of drug. As to the method: PKA-PhosFluor and cat_PKA are transcribed from different plasmids maintained by separate antibiotic resistance genes. FIG. 2C and FIG. 2D show charcoal agar plates streaked with E. coli containing the two plasmids indicated in B. The control plate lacks IPTG (FIG. 2C) while the IPTG plate was treated with 1 mM IPTG for 24 hours (FIG. 2D). […] Graphs depict % fluorescence change (excitation 488 nm; emission 530 nm) measured using a microplate reader 6 hr after addition of the indicated drug. Error bars indicate ±SEM (n=6). FIG. 2F is a schematic diagram showing mechanism of action for each drug.
Next, the ability of PKA-PhosFluor to monitor PKA activity in mammalian cells was examined. PKA activity is regulated by the level of cAMP, which itself, is regulated by other signaling pathways and cell growth (Uhler et al., 1986). […] All the drugs used have widely varying mechanisms of action (FIG. 2F).
Regarding `O=S(=O)(NCCNC/C=C/c1ccc(Br)cc1)c1cccc2cnccc12` [H89], the “fluorescence of PKA-PhosFluor (% fluorescence change)” value is on record as “reduced fluorescence”.

In the case of `CCCCCCOC(=O)[C@]1(O)C[C@@H]2O[C@@]1(C)n1c3ccccc3c3c4c(c5c6ccccc6n2c5c31)C(=O)NC4` [KT-5720], the “fluorescence of PKA-PhosFluor (% fluorescence change)” value was “reduced fluorescence”.

As for `CC(C)Cn1c(=O)n(C)c(=O)c2[nH]cnc21` [IBMX], the “fluorescence of PKA-PhosFluor (% fluorescence change)” value is “induced fluorescence”.

With `Nc1ncnc2c1ncn2[C@@H]1O[C@@H]2COP(O)(=S)O[C@H]2[C@H]1O` (some centres unmarked) [Rp-cAMP], the “fluorescence of PKA-PhosFluor (% fluorescence change)” value is “reduced fluorescence”.

Consider `Nc1ncnc2c1nc(Br)n2[C@@H]1O[C@@H]2COP(=O)(O)O[C@H]2[C@H]1O` [br-cAMP], for which the “fluorescence of PKA-PhosFluor (% fluorescence change)” value was “induced fluorescence”.
